Molecules are shown by their SMILES. Where only a bound is given, the exact number is not on record here.

Usually IC50 stands for the concentration at which inhibition is half-maximal.

Test [1] concerns the target T1, PIP4K 2A (Homo sapiens, UniProt P48426).
T1 sequence (P48426 1-406): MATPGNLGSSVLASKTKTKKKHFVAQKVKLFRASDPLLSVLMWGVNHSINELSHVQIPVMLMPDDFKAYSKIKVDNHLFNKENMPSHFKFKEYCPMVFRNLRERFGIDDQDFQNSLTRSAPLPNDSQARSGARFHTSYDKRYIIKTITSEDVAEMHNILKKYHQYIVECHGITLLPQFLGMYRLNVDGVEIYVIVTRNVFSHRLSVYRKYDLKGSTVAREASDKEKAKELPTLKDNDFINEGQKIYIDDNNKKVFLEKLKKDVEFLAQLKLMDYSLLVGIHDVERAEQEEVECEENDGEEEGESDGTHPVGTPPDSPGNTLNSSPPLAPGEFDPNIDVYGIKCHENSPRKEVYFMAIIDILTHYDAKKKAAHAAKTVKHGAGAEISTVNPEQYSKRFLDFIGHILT
Kind of test: ADP-glo kinase assay PIP4K 2A. The format is biochemical. Also noted: 4 nM PIP4K2A (full length protein, SignalChem); purchased SignalChem. Conditions: compounds listed under IC50 bin headings. The procedure, abridged:
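Inhibition was calculated versus DMSO controls from ADP-Glo luminescence and fitted to IC50 over a 10-point, threefold series. Compound was first pre-incubated 15 min at room temperature with PIP4K2A (full-length; 4 nM in the enzyme/substrate mix) and PI(5)P diC8 (100 μM in that mix). The reaction then ran for 1 h after adding 60 μM ATP solution, in MOPS pH 7.2/MgCl2/Tween buffer.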
Background: ADP-Glo turns the ADP formed in a reaction into a luminescent signal.

The target in test [2] is T2, PIP4K2B (Homo sapiens, UniProt P78356).
T2 construct: made in house; host or cells: E. coli
T2 sequence (P78356 1-416): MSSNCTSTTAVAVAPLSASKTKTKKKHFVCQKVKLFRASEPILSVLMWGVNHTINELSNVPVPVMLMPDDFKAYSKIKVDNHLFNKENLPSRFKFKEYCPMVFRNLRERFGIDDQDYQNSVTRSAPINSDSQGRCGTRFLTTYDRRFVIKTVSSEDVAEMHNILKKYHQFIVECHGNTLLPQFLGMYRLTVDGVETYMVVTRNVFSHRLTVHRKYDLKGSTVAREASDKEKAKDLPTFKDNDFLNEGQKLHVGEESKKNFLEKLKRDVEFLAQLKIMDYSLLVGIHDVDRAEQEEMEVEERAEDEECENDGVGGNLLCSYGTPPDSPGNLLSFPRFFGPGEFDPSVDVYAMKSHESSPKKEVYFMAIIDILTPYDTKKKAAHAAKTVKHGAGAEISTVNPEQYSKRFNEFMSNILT
Kind of test: Trans-FI P kinase assay PIP4K2B (PIP4KtypeIIB inhibition assay). The format is biochemical. As to conditions: compounds listed under IC50 bin headings; 100 uM GTP; read-out: Trans-FI P kinase assays: PIP4K2B IC50. Put shortly:
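Transcreener FI fluorescence read-out of GDP formed by E. coli-expressed GST-PIP4K2B (5 nM) using 100 uM GTP and 80 uM PI5P with DOPE carrier lipid, pH 7.3, 2 h reaction. Compounds (up to 4.8 uM) were preincubated with enzyme 1 h at 27 C; IC50 fitted from residual activity relative to no-inhibitor control.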

`CC1C[C@H]2COc3ncc(Nc4cc5c(cn4)-c4cc(F)c(N6CCCC6=O)cc4OC5C)cc3N2C1=O` (stereo partly drawn) [Example 152, (6aS)-2-((9-fluoro-5-methyl-8-(2-oxopyrrolidin-1-yl)-5H-chromeno[4,3-c]pyridin-3-yl)amino)-8-methyl-6,6a,7,8-tetrahydro-9H-pyrido[2,3-b]pyrrolo[1,2-d][1,4]oxazin-9-one]: the IC50 is at most 1 nM in test [1] and 1 to 10 nM in test [2].
The matching figures for `CC1Oc2cc(N3CCCC3=O)c(F)cc2-c2cnc(Nc3cnc4c(c3)N3C(=O)C(C)(C)C[C@H]3CO4)cc21` (stereo partly drawn) [Example 153, (6aS)-2-((9-fluoro-5-methyl-8-(2-oxopyrrolidin-1-yl)-5H-chromeno[4,3-c]pyridin-3-yl)amino)-8,8-dimethyl-6,6a,7,8-tetrahydro-9H-pyrido[2,3-b]pyrrolo[1,2-d][1,4]oxazin-9-one]: at most 1 nM and 1 to 10 nM.
The corresponding values for `CC1Oc2cc(N3CCCC3=O)c(F)cc2-c2cnc(Nc3cnc4c(c3)N3C(=O)C5(CC5)C[C@H]3CO4)cc21` (stereo partly drawn) [Example 154, (6a′S)-2′-((9-fluoro-5-methyl-8-(2-oxopyrrolidin-1-yl)-5H-chromeno[4,3-c]pyridin-3-yl)amino)-6a′,7′-dihydro-6′H,9′H-spiro[cyclopropane-1,8′-pyrido[2,3-b]pyrrolo[1,2-d][1,4]oxazin]-9′-one] are at most 1 nM and 1 to 10 nM.
As to `CC1C[C@H]2COc3ncc(Nc4cc5c(cn4)-c4ccc(N6CCCC6=O)cc4OC5C)cc3N2C1=O` (stereo partly drawn) [Example 155, (6aS)-8-methyl-2-((5-methyl-8-(2-oxopyrrolidin-1-yl)-5H-chromeno[4,3-c]pyridin-3-yl)amino)-6,6a,7,8-tetrahydro-9H-pyrido[2,3-b]pyrrolo[1,2-d][1,4]oxazin-9-one], the values for the IC50 in test [1] and in test [2] were at most 1 nM and 1 to 10 nM, respectively.
The matching figures for `CC1Oc2cc(N3CCCC3=O)ccc2-c2cnc(Nc3cnc4c(c3)N3C(=O)C(C)(C)C[C@H]3CO4)cc21` (stereo partly drawn) [Example 156, (6aS)-8,8-dimethyl-2-((5-methyl-8-(2-oxopyrrolidin-1-yl)-5H-chromeno[4,3-c]pyridin-3-yl)amino)-6,6a,7,8-tetrahydro-9H-pyrido[2,3-b]pyrrolo[1,2-d][1,4]oxazin-9-one]: at most 1 nM and 1 to 10 nM.
The corresponding values for `CC1Oc2cc(N3CCCC3=O)ccc2-c2cnc(Nc3cnc4c(c3)N3C(=O)C5(CC5)C[C@H]3CO4)cc21` (stereo partly drawn) [Example 157, (6a′S)-2′-((5-methyl-8-(2-oxopyrrolidin-1-yl)-5H-chromeno[4,3-c]pyridin-3-yl)amino)-6a′,7′-dihydro-6′H,9′H-spiro[cyclopropane-1,8′-pyrido[2,3-b]pyrrolo[1,2-d][1,4]oxazin]-9′-one] are at most 1 nM and 1 to 10 nM.
The corresponding values for `CC1Oc2cc(N3CCCC3=O)ccc2-c2cnc(Nc3cnc4c(c3)N3C(=O)OC[C@H]3CO4)cc21` (stereo partly drawn) [Example 158, (3aR)-8-((5-methyl-8-(2-oxopyrrolidin-1-yl)-5H-chromeno[4,3-c]pyridin-3-yl)amino)-3a,4-dihydro-1H,3H-oxazolo[3,4-d]pyrido[2,3-b][1,4]oxazin-1-one] are at most 1 nM and 1 to 10 nM.
Regarding `CC1Oc2cc(N3CCCC3=O)c(F)cc2-c2cnc(Nc3cnc4c(c3)N3C(=O)OC[C@H]3CO4)cc21` (stereo partly drawn) [Example 159, (3aR)-8-((9-fluoro-5-methyl-8-(2-oxopyrrolidin-1-yl)-5H-chromeno[4,3-c]pyridin-3-yl)amino)-3a,4-dihydro-1H,3H-oxazolo[3,4-d]pyrido[2,3-b][1,4]oxazin-1-one], the half-maximal inhibitory concentration (IC50) is at most 1 nM in test [1] and 1 to 10 nM in test [2].
The matching figures for `O=C1CCCN1c1ccc2c(c1)OCc1cc(Nc3cncc(N4CCNC4=O)c3)ncc1-2` [Example 160, 1-(5-((8-(2-oxopyrrolidin-1-yl)-5H-chromeno[4,3-c]pyridin-3-yl)amino)pyridin-3-yl)imidazolidin-2-one]: 1 to 10 nM and 10 to 100 nM.
The corresponding values for `O=C1NCCN1c1cncc(Nc2cc3c(cn2)-c2cc(F)c(N4CCCC4=O)cc2OC3)c1` [Example 161, 1-(5-((9-fluoro-8-(2-oxopyrrolidin-1-yl)-5H-chromeno[4,3-c]pyridin-3-yl)amino)pyridin-3-yl)imidazolidin-2-one] are 1 to 10 nM and 10 to 100 nM.
The matching figures for `CC1(C)Oc2cc(N3CCCC3=O)ccc2-c2cnc(Nc3cncc(N4CCNC4=O)c3)cc21` [Example 162, 1-(5-((5,5-dimethyl-8-(2-oxopyrrolidin-1-yl)-5H-chromeno[4,3-c]pyridin-3-yl)amino)pyridin-3-yl)imidazolidin-2-one]: 1 to 10 nM and 10 to 100 nM.
For `O=C1CCCN1c1ccc2c(c1)OCc1cc(Nc3cnc4c(c3)OCCO4)ncc1-2` [Example 163, 1-(3-((2,3-dihydro-[1,4]dioxino[2,3-b]pyridin-7-yl)amino)-5H-chromeno[4,3-c]pyridin-8-yl)pyrrolidin-2-one], the concentration for half-maximal inhibition (IC50) in test [1] lay within 1 to 10 nM; in test [2] it was 10 to 100 nM.
For the compound `O=C1CCCN1c1cc2c(cc1F)-c1cnc(Nc3cnc4c(c3)OCCO4)cc1CO2` [Example 165, 1-(3-((2,3-dihydro-[1,4]dioxino[2,3-b]pyridin-7-yl)amino)-9-fluoro-5H-chromeno[4,3-c]pyridin-8-yl)pyrrolidin-2-one], the IC50 in test [1] and in test [2] was 10 to 100 nM throughout.
With `CC1Oc2cc(N3CCCC3=O)c(F)cc2-c2cnc(Nc3cnc4c(c3)OCCO4)cc21` (stereo not drawn) [Example 166, 1-(3-((2,3-dihydro-[1,4]dioxino[2,3-b]pyridin-7-yl)amino)-9-fluoro-5-methyl-5H-chromeno[4,3-c]pyridin-8-yl)pyrrolidin-2-one], the half-maximal inhibitory concentration (IC50) lay in the range of 1 to 10 nM in test [1] and 10 to 100 nM in test [2].
The matching figures for `COCCC(=O)N1CCN(c2cncc(Nc3cc4c(cn3)-c3ccc(N5CCCC5=O)cc3OC4)c2)CC1` [Example 168, 1-(3-((5-(4-(3-methoxypropanoyl)piperazin-1-yl)pyridin-3-yl)amino)-5H-chromeno[4,3-c]pyridin-8-yl)pyrrolidin-2-one]: 10 to 100 nM and 10 to 100 nM.
The matching figures for `COCCC(=O)N1CCN(c2cncc(Nc3cc4c(cn3)-c3ccc(N5CCCC5=O)cc3OC4C)c2)CC1` (stereo not drawn) [Example 169, 1-(3-((5-(4-(3-methoxypropanoyl)piperazin-1-yl)pyridin-3-yl)amino)-5-methyl-5H-chromeno[4,3-c]pyridin-8-yl)pyrrolidin-2-one]: 1 to 10 nM and 10 to 100 nM.
The corresponding values for `COCCC(=O)N1CCN(c2cncc(Nc3cc4c(cn3)-c3cc(F)c(N5CCCC5=O)cc3OC4)c2)CC1` [Example 171, 1-(9-fluoro-3-((5-(4-(3-methoxypropanoyl)piperazin-1-yl)pyridin-3-yl)amino)-5H-chromeno[4,3-c]pyridin-8-yl)pyrrolidin-2-one] are 10 to 100 nM and 10 to 100 nM.
For `COCCC(=O)N1CCN(c2cncc(Nc3cc4c(cn3)-c3cc(F)c(N5CCCC5=O)cc3OC4C)c2)CC1` (stereo not drawn) [Example 172, 1-(9-fluoro-3-((5-(4-(3-methoxypropanoyl)piperazin-1-yl)pyridin-3-yl)amino)-5-methyl-5H-chromeno[4,3-c]pyridin-8-yl)pyrrolidin-2-one], the IC50 lay in the range of 1 to 10 nM in test [1] and 10 to 100 nM in test [2].

For the origin of these results see US11584763B2, “Chromenopyridine derivatives as phosphatidylinositol phosphate kinase inhibitors” (HIBERCELL, INC., priority 2017, dated 2023).
